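Method: 48-hour compound exposure of cells in 96-well plates, five concentrations, linear interpolation of endpoints. At the GI50, growth is halved. TGI is the concentration that stops growth completely.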
Columns and labels:
Assay in all cases: growth of human tumour cells (NCI), 48 h
[1] = system: A498 renal
[2] = system: EKVX NSCLC
[3] = system: HL-60(TB) leukemia
[4] = system: HOP-62 NSCLC
[5] = system: M14 melanoma
[6] = system: NCI-H226 lung
[7] = system: SN12C renal
[8] = system: SW-620 colon
[9] = system: T-47D breast
[10] = system: U251 CNS

| SMILES | TGI [1] | TGI [2] | TGI [3] | TGI [4] | TGI [5] | TGI [6] | TGI [7] | TGI [8] | TGI [9] | TGI [10] | GI50 [3] | GI50 [1] | GI50 [2] | GI50 [4] | GI50 [5] | GI50 [6] | GI50 [7] | GI50 [8] | GI50 [9] | GI50 [10] |
| --- | --- | --- | --- | --- | --- | --- | --- | --- | --- | --- | --- | --- | --- | --- | --- | --- | --- | --- | --- | --- |
| N#CC1=C(N)OC2=C(CCCc3ccc([N+](=O)[O-])cc32)C1c1ccc(Cl)cc1 (stereo not given) | 35.5 µM | 71.7 µM | 7.26 µM | > 100 µM | 49.8 µM | 76.3 µM | 6.78 µM | > 100 µM | 53.9 µM | 28 µM |  |  |  |  |  |  |  |  |  |  |
| O=C1c2cccc3cc([N+](=O)[O-])cc(c23)C(=O)N1c1ccc(OCCN2CCCC2)cc1 | 32.2 µM | 71.3 µM | 29 µM | 76.4 µM | 47.1 µM | 24.2 µM | > 100 µM | 95.2 µM | > 100 µM | 41.3 µM |  |  |  |  |  |  |  |  |  |  |
| Clc1ccc(Cc2nc3cc(Cl)c(Cl)cc3n2CC2CCCN3CCCCC23)cc1 (stereo not given) | 27.5 µM | 23 µM | 25.4 µM | 40.8 µM | 7.95 µM | 38 µM | 25.4 µM | 31.3 µM | 64.6 µM | 20.8 µM |  |  |  |  |  |  |  |  |  |  |
| COC(=O)[C@@H]1CN(C(=O)Cc2ccccc2)C(=O)N1 | > 100 µM | > 100 µM | > 100 µM | > 100 µM | > 100 µM | > 100 µM | > 100 µM | > 100 µM | > 100 µM | > 100 µM |  |  |  |  |  |  |  |  |  |  |
| CC1(C)OCC(/C=C\C(O)CC2(C)OCCO2)CO1 (stereo not given) | > 100 µM | > 100 µM | > 100 µM | > 100 µM | > 100 µM | > 100 µM | > 100 µM | > 100 µM | > 100 µM | > 100 µM |  |  |  |  |  |  |  |  |  |  |
| CCOC(=O)c1cccc(N=NNc2cccc(C(=O)OCC)c2)c1 | 86.1 µM | > 100 µM | > 100 µM | 32.4 µM | > 100 µM | > 100 µM | 73.5 µM | > 100 µM | > 100 µM | 46.6 µM |  |  |  |  |  |  |  |  |  |  |
| CCOC(=O)c1c(N2CCN(C)CC2)[nH]c(=O)c(C(c2c(Cl)cccc2Cl)c2c(O)c(C(=O)OCC)c(N3CCN(C)CC3)[nH]c2=O)c1O | 39.8 µM | 34.2 µM | 58.2 µM | > 100 µM | 68.9 µM | 52.6 µM | 48 µM | 68.2 µM | 45.8 µM | 50 µM |  |  |  |  |  |  |  |  |  |  |
| CNC(=O)OC1/C(C)=C\C(C)C(O)C(OC)CC(C)CC2=C(OC)C(=O)C=C(C2=O)N(C)C(=O)/C(C)=C/C=C\C1OC (stereo not given) | 42.8 µM | 24.7 µM | 14.1 µM | 24 µM | 18.4 µM | 36.7 µM | 16.5 µM | 12.5 µM | 6.14 µM | 31.4 µM | 0.918 µM |  |  |  |  |  |  |  |  |  |
| COc1cccc(C2c3cc4c(cc3OC(NNS(=O)(=O)c3ccc(C)cc3)C2C)OCO4)c1O (stereo not given) | 70.4 µM | > 100 µM | 38.2 µM | 53 µM | > 100 µM | > 100 µM | > 100 µM | > 100 µM | > 100 µM | > 100 µM |  |  |  |  |  |  |  |  |  |  |
| O=C1N[C@@H]([C@H]2CC[C@H](Cl)CN2)C(=O)N[C@H]1[C@H]1CC[C@H](Cl)CN1 | 15.6 µM | 19.2 µM | 0.426 µM | 4.04 µM | 2.3 µM | 11.6 µM | 18.9 µM | 29.4 µM | 56.1 µM | 12.3 µM |  |  |  |  |  |  |  |  |  |  |
| O=c1[nH]nc(-c2cccc([N+](=O)[O-])c2)[nH]1 | > 100 µM | > 100 µM | > 100 µM | > 100 µM | > 100 µM | > 100 µM | > 100 µM | > 100 µM | > 100 µM | > 100 µM |  |  |  |  |  |  |  |  |  |  |
| O=[N+]([O-])C(/C=C(\Cl)[N+](=O)[O-])=C(N1CCOCC1)N1CCOCC1 | 51.5 µM | > 100 µM | 36.8 µM | 37.7 µM | > 100 µM | > 100 µM | > 100 µM |  | 52.7 µM | 46.7 µM |  |  |  |  |  |  |  |  |  |  |
| CCc1nnc2sc(-c3ccc(-c4ccccc4[N+](=O)[O-])o3)nn12 | > 100 µM | > 100 µM | 99.2 µM | > 100 µM | > 100 µM | 44 µM | > 100 µM | > 100 µM | > 100 µM | > 100 µM |  |  |  |  |  |  |  |  |  |  |
| O=C(c1ccccc1)c1nn(-c2cccc(Cl)c2)c2nc3nc(-c4ccccc4)cc(=O)n3nc12 | > 25 µM | > 25 µM | 16.7 µM | > 25 µM | > 25 µM | > 25 µM | > 25 µM | > 25 µM | > 25 µM | > 25 µM | 5.1 µM | > 25 µM | > 25 µM | > 25 µM | > 25 µM | > 25 µM | > 25 µM | > 25 µM | > 25 µM | > 25 µM |
| COc1ccc(/C=N/n2c(-c3ccccc3)n[nH]c2=O)c(OC)c1 | > 73.4 µM | > 100 µM | > 100 µM | > 68.3 µM | > 100 µM | > 100 µM | > 100 µM | > 100 µM | > 100 µM | > 100 µM |  |  |  |  |  |  |  |  |  |  |
| C=CCCCCCCCCCOC1C=CC(O)C(CO)O1 (stereo not given) | > 100 µM | > 100 µM | 65.5 µM | > 100 µM | 36 µM | > 100 µM | > 100 µM | > 100 µM | > 100 µM | > 100 µM |  |  |  |  |  |  |  |  |  |  |

Reference: PubChem BioAssay (NCI)
